We go through four compounds from patent publication US12291515B2, “Pyrrolidine derivative and use thereof” (Rushi Biotech (Hangzhou) Co., Ltd, priority 2021, dated 2025).

What all share (format): cell-based
Assay [1] relates to Human colon cancer cell HCT-116. Kind of assay: CCK-8 cell proliferation assay, HCT116. Conditions: HCT116 cells, CCK-8, 24 hrs with drug, OD 450 nm. In outline: (§1)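 Cells seeded at 5×10^4 cells/ml (CFPAC-1) or 3.5×10^4 cells/ml (others), grown 24 h, then exposed to drug in medium for 24 h at 37° C, 5% CO2. Viability read by CCK-8 (2–3 h) at OD 450 nm; inhibition rate calculated against drug-free controls.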
Background: Tetrazolium dyes change colour on reduction, which living cells bring about.

The subject of assay [2] is Human multiple myeloma cell RPMI 8226. The assay can be described thus: CCK-8 cell proliferation assay, RPMI8226. Conditions: RPMI8226 cells, CCK-8, 24 hrs with drug, OD 450 nm.
The test system of assay [3] is Human lung adenocarcinoma cell A549. Kind of assay: CCK-8 cell proliferation assay, A549. Conditions: A549 cells, CCK-8, 24 hrs with drug, OD 450 nm. In outline: as §1
In assay [4] the test system is Human esophageal cancer cell TE-1. Kind of assay: CCK-8 cell proliferation assay, TE-1. Conditions: TE-1 cells, CCK-8, 24 hrs with drug, OD 450 nm. The procedure, abridged: as §1
Assay [5] concerns Human hepatoma cell HepG2. Kind of assay: CCK-8 cell proliferation assay, HepG2. Conditions: HepG2 cells, CCK-8, 24 hrs with drug, OD 450 nm. In outline: as §1
Assay [6] has as its system Human gastric cancer cell MKN45. Kind of assay: CCK-8 cell proliferation assay, MKN-45. The conditions noted are these: MKN-45 cells, CCK-8, 24 hrs with drug, OD 450 nm. The procedure, abridged:
as §1

Assay [7] has as its system Human pancreatic cancer cell CFPAC-1. The assay can be described thus: CCK-8 cell proliferation assay, CFPAC-1. Conditions: CFPAC-1 cells, CCK-8, 24 hrs with drug, OD 450 nm. In outline: as §1

Usually IC50 stands for the concentration needed to halve the response being measured. Lower therefore signals inhibition by little substance.

As for `COc1cccc(OC)c1C(=O)N1CCC(CCCCCCCNC(=O)Nc2ccnc(F)c2)C1` (stereo not shown) [BSS-TP130], the IC50 is 46 nM in assay [1]; 38 nM in assay [2]; 56 nM in assay [3]; 61 nM in assay [4]; 55 nM in assay [5]; 73 nM in assay [6]. In assay [7], it took 43 nM to reach half-maximal inhibition (IC50).
Take `O=C(NCCCCCCCC1CCN(C(=O)c2ccccc2)C1)Nc1ccncc1` (stereo not shown) [BSS-TP131]: the 50% inhibitory concentration (IC50) in assay [1] came to 75 nM; in assay [2] it was 29 nM; in assay [3] it was 43 nM; in assay [4], 69 nM; in assay [5] it was 67 nM; in assay [6], 47 nM. The compound further gave an IC50 in assay [7] of 36 nM.
For the compound `O=C(NCCCCCCCC1CCN(C(=O)c2ccccc2)C1)Nc1ccnc(F)c1` (stereo not shown) [BSS-TP132], the 50% inhibitory concentration (IC50) in assay [1] stood at 65 nM; in assay [2] it was 34 nM; in assay [3], 51 nM; in assay [4] it was 77 nM; in assay [5] it was 61 nM; in assay [6] it was 39 nM. Half-maximal inhibition in assay [7] (IC50) was put at 30 nM.
Regarding `O=C(/C=C/c1cccnc1)NCCCCC1CCN(C(=O)c2ccccc2)CC1` [FK866, reference compound], the concentration for half-maximal inhibition (IC50) amounted to 92 nM in assay [1]; 20 nM in assay [2]; 37 nM in assay [3]; 112 nM in assay [4]; 99 nM in assay [5]; 39 nM in assay [6]. Besides, in assay [7], the IC50 came out at 37 nM.
